Where no end group is shown, it is not given here.
Key:
Aedes aegypti [1] = assay: Inhibition of egg (ovarian) development after injection into blood-fed females; type: in vivo; settings: for Inhibition of egg development / Yolk length: 24 hours; for Effect compared with natural, purified oostatic hormone: injection
Method: (§1) Female insects were injected with 0.5 μl to 1.0 μl hormone solution
(§2) of analog 1 or saline and analyzed 24 hours later for egg development.
(§3) The insects were evaluated for the effect of oostatic hormone 24 hours after injecting the hormone by dissecting out the ovaries and measuring the yolk in each follicle, or by dissecting out the midgut and determining trypsin biosynthesis as was described by Borovsky, D. (1988), Arch. Insect Biochem. Physiol. 8:249-260. We believe that we have discovered an effective method that can interfere with the biosynthesis of serine esterases (trypsinlike or chymotrypsinlike enzymes) in the midgut of insects.
(§4) (a) Female Aedes aegypti were fed blood on a chicken, lightly anesthetized with ether, and immediately injected with different concentrations (1 to 5 μg; 0.25 to 0.5 μl) of synthetic analogs of oostatic hormone (1 and 2). […] Twenty-four hours after the injection of oostatic hormone analogs, or water as a control, egg development and trypsinlike enzyme biosynthesis was determined (Borovsky, D. (1988), Arch, Ins. Biochem. Physiol. 7:187-210). (See Table 2)
Groups of female Aedes aegypti were injected with 0.5 to 0.25 μl of
oostatic hormone analogs, or with 0.5 μl of water as control.

Aedes aegypti [2] = assay: Toxicity (mortality) of injected mosquitoes; type: in vivo; settings: 1 to 5 μg injected in 0.25 to 0.5 μl
Method: as §4

houseflies = assay: Topical application in DMSO; type: in vivo; settings: 10 to 20 μg topically in 1 to 10 μl of DMSO; 24 hours after treatment
Method: (§5) (b) Another procedure was to dissolve oostatic hormone analogs (1) or (2) in a solvent that might facilitate transport through the cuticular barrier into hemolymph. Dimethylsulfoxide was used and 10 to 20 μg of (1) or (2) was applied topically to houseflies and stableflies in 1 to 10 μl of DMSO.

stableflies = assay: Topical application in DMSO; type: in vivo; settings: 10 to 20 μg topically in 1 to 10 μl of DMSO; 24 hours after treatment
Method: as §5

[3] = test system: trypsinlike enzymes biosynthesis; assay: Inhibition of trypsinlike enzyme biosynthesis in the midgut after injection; type: in vivo, Aedes aegypti; settings: 2.86 nmol injected; 24 hours later
Method: as §1, §2, §3, §4

Anopheles albimanus = assay: Inhibition of ovarian development after injection; type: in vivo; settings: 1.83 nmol injected; 24 hours later
Method: as §1, §2, §3

Culex quinquefasciatus = assay: Inhibition of ovarian development after injection; type: in vivo; settings: 3.6 nmol injected; 24 hours later
Method: as §1, §2, §3

Lutzomyia anthophora = assay: Inhibition of ovarian development after injection; type: in vivo; settings: 0.477 nmol injected; 24 hours later
Method: as §1, §2, §3

[4] = test system: trypsinlike enzymes biosynthesis; assay: Inhibition of trypsin synthesis after injection; type: in vivo, Lutzomyia anthophora; settings: 0.477 nmol injected; 24 hours later
Method: as §1, §2, §3

[5] = test system: trypsinlike enzymes biosynthesis; assay: Inhibition of trypsin synthesis after injection; type: in vivo, Stomoxys calcitrans; settings: 4.77 nmol injected; 24 hours later
Method: as §1, §2, §3

[6] = test system: trypsinlike enzymes biosynthesis; assay: Inhibition of trypsin synthesis after injection; type: in vivo, Musca domestica; settings: 4.77 nmol injected; 24 hours later
Method: as §1, §2, §3

[7] = test system: trypsinlike enzymes biosynthesis; assay: Inhibition of trypsin synthesis after injection; type: in vivo, Ctenocephalides felis (bouche); settings: 0.477 nmol injected; 24 hours later
Method: as §1, §2, §3

[8] = type: in vitro ADME, mosquito
From the text: The structure of these peptides render them undigestible with known endopeptidases (i.e. proteolytic enzymes like trypsin, pronase, etc.). The peptides were not affected by 1% trifluoroacetic acid and were routinely purified using this acid on HPLC. DNA sequences encoding the peptides of the invention can be used as probes to locate the genes expressing these peptides.

## DYPAPPPPPP [analog 2, H2 NDYPAP6 COOH]
Aedes aegypti [1]; 0.96 μg (0.92 nmol) injected
  Inhibition of egg development: 62%
  Yolk length: 102 ± 11 μm
Aedes aegypti [1]; 1.92 μg (1.83 nmol) injected
  Inhibition of egg development: 96%
  Yolk length: 55 ± 11 μm
Aedes aegypti [1]
  Effect compared with natural, purified oostatic hormone: same effect as injection of natural, purified oostatic hormone
Aedes aegypti [2]
  Toxicity: death of injected mosquitoes: none of the injected mosquitoes died
houseflies
  Activity (sterilization through inhibition of trypsin-like enzyme synthesis): Some evidence of activity
stableflies
  Activity (sterilization through inhibition of trypsin-like enzyme synthesis): Some evidence of activity

## YDPAPPPPPP [analog 1, H2 NYDPAP6 COOH]
Aedes aegypti [1]; 2.86 nmol injected, analyzed 24 hours later
  Inhibition of ovarian development: 98%
Aedes aegypti [1]; 1.20 μg (1.15 nmol) injected
  Inhibition of egg development: 76%
  Yolk length: 82 ± 3 μm
Aedes aegypti [1]; 2.44 μg (2.33 nmol) injected
  Inhibition of egg development: 98%
  Yolk length: 53 ± 3 μm
Aedes aegypti [1]
  Effect compared with natural, purified oostatic hormone: same effect as injection of natural, purified oostatic hormone
[3]
  Inhibition of trypsin synthesis: 86%
Anopheles albimanus
  Inhibition of ovarian development: 100%
Culex quinquefasciatus
  Inhibition of ovarian development: 91%
Lutzomyia anthophora
  Inhibition of ovarian development: 50%
[4]
  Inhibition of trypsin synthesis: 30%
[5]
  Inhibition of trypsin synthesis: 50%
[6]
  Inhibition of trypsin synthesis: 85%
[7]
  Inhibition of trypsin synthesis: 50%
Aedes aegypti [2]
  Toxicity: death of injected mosquitoes: none of the injected mosquitoes died
houseflies
  Activity (sterilization through inhibition of trypsin-like enzyme synthesis): Some evidence of activity
stableflies
  Activity (sterilization through inhibition of trypsin-like enzyme synthesis): Some evidence of activity
[8]
  Loss of activity on standing in mosquito homogenate: without loss of activity
